Earlier results on two molecules are cited in US20190114390A1, “DRUG REPURPOSING BASED ON DEEP EMBEDDINGS OF GENE EXPRESSION PROFILES” (BioAge Labs, Inc., priority 2017, published 2019).

The conditions of data set [1]: known property.
For the next data set, the system named is imidazole I-2 receptors. The conditions noted are these: known property.

Turning to `CN(C)C(=N)N=C(N)N` [Metformin, metformin], in data set [1], the “effect on glucose levels” value is “lower glucose levels”. In addition, the “effect upon imidazole I-2 receptors” value in the data set with imidazole I-2 receptors is recorded as “direct inhibitory effect upon imidazole I-2 receptors”.
Consider `NC(=O)NC1NC(=O)NC1=O` (stereo not shown) [allantoin], for which the “effect on glucose levels” value in data set [1] is recorded as “lowers glucose levels”. Besides, the “effect upon imidazole I-2 receptors” value with imidazole I-2 receptors is “direct inhibitory effect upon imidazole I-2 receptors”.
